From patent US7294641B2, “Heterocyclic compound for stimulating or inducing the growth of the hair or eyelashes and/or slowing down their loss, composition comprising it and its uses” (L'Oreal, priority 2002, dated 2007)
Structures can show the parent of a compound that is named as a salt.

Tests used:
15PGDH [1] = molecular target: T1, 15PGDH (Homo sapiens, UniProt P15428); assay: Specific inhibitory effectiveness for 15PGDH on a cell model (PGF2 secreted by PMA/LPS-treated U937); format: cell-based; set-up: endogenous in cells; host or cells: U937 (ATCC CRL-1593), PMA-differentiated, LPS-stimulated; conditions: 5 μM test molecule, 10 ng LPS, 6 h at 37° C., immuno-enzymatic assay
T1 sequence (P15428 1-266): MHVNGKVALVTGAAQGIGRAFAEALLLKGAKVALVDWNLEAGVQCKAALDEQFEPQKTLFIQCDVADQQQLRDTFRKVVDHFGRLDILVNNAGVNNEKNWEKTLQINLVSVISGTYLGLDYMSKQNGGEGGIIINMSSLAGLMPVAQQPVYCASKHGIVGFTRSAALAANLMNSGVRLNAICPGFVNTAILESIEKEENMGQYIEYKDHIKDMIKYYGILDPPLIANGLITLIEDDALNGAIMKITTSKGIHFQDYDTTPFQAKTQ
Procedure: The present study is targeted at evaluating the compounds of formula (I) in a cell model. This study makes it possible to determine the penetration of the active principle into the cytosol and its effectiveness as specific inhibitor of 15-PGDH under more complex experimental conditions than a simple reaction medium.
D-2. Culturing of U937 (CRL-1593 American Type Cells Collection) in RPMI medium 1640+10% of foetal calf serum+2 mM of L-glutamine+antibiotics at 37° C. under 5% of CO2.
D-1. Preparation of a suspension of U937 (1×10^6 cells/ml) in RPMI medium 1640+10% of foetal calf serum+2 mM of glutamine+antibiotics+10 nM of PMA (phorbol 12-myristate 13-acetate); introduction of 200 μl per test well of this suspension into a 96-well plate (3 wells per molecule and per concentration to be tested+corresponding controls); incubation at 37° C. for 36 h 00 under 5% CO2.
D0. Removal of the supernatants (the cells have adhered to the bottom of the wells: monitoring using a microscope) and introduction into each well of 100 μl of RPMI 1640+2 mM of L-glutamine+10 ng of LipoPolySaccharide (LPS) (except absolute control)+the test molecule at the desired concentration (in this instance, 5 and 25 μM).
Incubation at 37° C. for 6 h 00 under 5% of CO2.
The mother solutions of test molecules are at 25 mM in DiMethyl SulfOxide.
All the wells comprise the same final amount of DMSO. […]

15PGDH [2] = molecular target: T1, 15PGDH; assay: Test on 15-PGDH (spectrophotometric, 340 nm, PGE2/β-NAD); format: biochemical; set-up: made in house
Procedure: The enzyme 15-PGDH is obtained as disclosed in Application FR-A-02/05067, filed on behalf of L'Oréal, in suspension in a suitable medium at a concentration of 0.3 mg/ml, then blocked at −80° C. For the requirements of the test, this suspension is defrosted and stored in ice.
Furthermore, a Tris 100 mM, pH=7.4, buffer comprising 0.1 mM of dithiothreitol (D5545, Sigma-Aldrich, L'isle D'Abeau Chesne, BP 701, 38297, Saint Quentin Fallavier), 1.5 mM of β-NAD (N6522, Sigma-Aldrich, L'isle D'Abeau Chesne, BP 701, 38297, Saint Quentin Fallavier) and 50 μM of prostaglandin E2 (P4172, Sigma-Aldrich, L'isle D'Abeau Chesne, BP 701, 38297, Saint Quentin Fallavier) is prepared.
(§1) 0.965 ml of this buffer (brought beforehand to 37° C.) is introduced into the cell of a spectrophotometer (Perkin-Elmer, Lambda 2) thermostatically controlled at 37° C., the wavelength of which for the measurement is adjusted to 340 nm. 0.035 ml of enzymatic suspension at 37° C. is introduced into the cell concomitantly with the recording (corresponding to an increase in optical density at 340 nm). The maximum rate of reaction is noted.
The test values (comprising the compounds (I)) are compared with the control value (without compound (I)); the results indicated represent the concentration at which the compound (I) inhibits 50% of the enzymatic activity of 15-PGDH, referred to as IC50dh.

PGF synthase = molecular target: T2, PGF synthase (Homo sapiens, UniProt P42330); assay: Test on PGFS (spectrophotometric, 340 nm, 9,10-phenanthrenequinone/β-NADPH); format: biochemical; conditions: Tris 100 mM pH 6.5, 37° C., 20 μM 9,10-phenanthrenequinone, 100 μM β-NADPH; read-out: Inhibition of PGFS IC50fs
T2 construct: made in house
T2 sequence (P42330 1-323): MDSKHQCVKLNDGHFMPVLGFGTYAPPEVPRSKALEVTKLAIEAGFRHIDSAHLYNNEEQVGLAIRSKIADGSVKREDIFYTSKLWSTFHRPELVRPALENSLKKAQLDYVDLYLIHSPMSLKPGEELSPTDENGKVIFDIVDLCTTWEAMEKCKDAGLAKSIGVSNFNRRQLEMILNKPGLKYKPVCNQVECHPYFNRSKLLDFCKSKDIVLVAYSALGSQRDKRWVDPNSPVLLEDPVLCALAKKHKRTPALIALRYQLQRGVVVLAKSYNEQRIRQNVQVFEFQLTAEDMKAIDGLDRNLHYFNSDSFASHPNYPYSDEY
Procedure: The enzyme PGF synthase is obtained as disclosed in the document FR-A-02/05067, at a concentration of 0.5 mg/ml, in suspension in an appropriate medium, and is blocked at −80° C. For the requirements of the test, this suspension is defrosted and stored in ice.
Furthermore, a Tris 100 mM, pH=6.5, buffer comprising 20 μM of 9,10-phenanthrenequinone* (P2896, Sigma-Aldrich, L'isle D'Abeau Chesne, BP 701, 38297, Saint Quentin Fallavier) and 100 μM of β-NADPH(N1630, Sigma-Aldrich, L'isle D'Abeau Chesne, BP 701, 38297, Saint Quentin Fallavier) is prepared in a brown bottle (exclusion of light).
* A mother solution assaying 1 mM is prepared in absolute ethanol and is brought to 40° C.; the bottle is placed in an ultrasonic bath to facilitate the dissolution of the product.
as §1, with “0.950” for “0.965”, “0.05” for “0.035”, “a fall” for “an increase”, “noted. […]” for “noted.”

Row | Compound | amount of PGF2 secreted by the cells, % of the LPS control (15PGDH [1]) | IC50 (15PGDH [2]; Tris 100 mM pH 7.4, 37° C., 50 μM prostaglandin E2, 1.5 mM β-NAD, read-out: Inhibition of 15-PGDH IC50dh) [nM] | ratio IC50fs/IC50dh (15PGDH [2]; selectivity for 15-PGDH with respect to PGFS) | IC50 (PGF synthase) [nM]
1 | O=C1N=C(O)/C(=C/c2ccc(-c3ccc(C(=O)O)cc3)o2)S1 [Compound 8, Disodium salt of 4-{5-[(2,4-disulpho-1,3-thiazolidin-5-ylidene)methyl]-2-furyl}benzoic acid (isomer Z)] | +44 ± 16% | – | – | –
2 | O=C1NC(=O)C(=Cc2ccc(-c3ccc(C(=O)O)cc3)o2)S1 [Compound 1, 4-{5-[(2,4-Dioxo-1,3-thiazolidin-5-ylidene)methyl]-2-furyl}benzoic acid] | +76 ± 20% | 300 | greater than 13 | 4000
